According to US20120029190A1, “COMPOUNDS FOR TREATING DISORDERS MEDIATED BY METABOTROPIC GLUTAMATE RECEPTOR 5, AND METHODS OF USE THEREOF” (priority 2009, published 2012):

molecular target: T1, human recombinant mGluR5 receptor (Homo sapiens, UniProt P41594); test: mGluR5 in vitro functional assay (aequorin cell line, inhibition of glutamate EC80 response); assay type: cell-based; settings: Table 2; aequorin cell line expressing human mGluR5, reference agonist glutamate at EC80; obtained in duplicate; read-out: IC50
T1 construct: expressed in transfected cells; expression induced with doxycycline
T1 sequence (P41594 21-1212): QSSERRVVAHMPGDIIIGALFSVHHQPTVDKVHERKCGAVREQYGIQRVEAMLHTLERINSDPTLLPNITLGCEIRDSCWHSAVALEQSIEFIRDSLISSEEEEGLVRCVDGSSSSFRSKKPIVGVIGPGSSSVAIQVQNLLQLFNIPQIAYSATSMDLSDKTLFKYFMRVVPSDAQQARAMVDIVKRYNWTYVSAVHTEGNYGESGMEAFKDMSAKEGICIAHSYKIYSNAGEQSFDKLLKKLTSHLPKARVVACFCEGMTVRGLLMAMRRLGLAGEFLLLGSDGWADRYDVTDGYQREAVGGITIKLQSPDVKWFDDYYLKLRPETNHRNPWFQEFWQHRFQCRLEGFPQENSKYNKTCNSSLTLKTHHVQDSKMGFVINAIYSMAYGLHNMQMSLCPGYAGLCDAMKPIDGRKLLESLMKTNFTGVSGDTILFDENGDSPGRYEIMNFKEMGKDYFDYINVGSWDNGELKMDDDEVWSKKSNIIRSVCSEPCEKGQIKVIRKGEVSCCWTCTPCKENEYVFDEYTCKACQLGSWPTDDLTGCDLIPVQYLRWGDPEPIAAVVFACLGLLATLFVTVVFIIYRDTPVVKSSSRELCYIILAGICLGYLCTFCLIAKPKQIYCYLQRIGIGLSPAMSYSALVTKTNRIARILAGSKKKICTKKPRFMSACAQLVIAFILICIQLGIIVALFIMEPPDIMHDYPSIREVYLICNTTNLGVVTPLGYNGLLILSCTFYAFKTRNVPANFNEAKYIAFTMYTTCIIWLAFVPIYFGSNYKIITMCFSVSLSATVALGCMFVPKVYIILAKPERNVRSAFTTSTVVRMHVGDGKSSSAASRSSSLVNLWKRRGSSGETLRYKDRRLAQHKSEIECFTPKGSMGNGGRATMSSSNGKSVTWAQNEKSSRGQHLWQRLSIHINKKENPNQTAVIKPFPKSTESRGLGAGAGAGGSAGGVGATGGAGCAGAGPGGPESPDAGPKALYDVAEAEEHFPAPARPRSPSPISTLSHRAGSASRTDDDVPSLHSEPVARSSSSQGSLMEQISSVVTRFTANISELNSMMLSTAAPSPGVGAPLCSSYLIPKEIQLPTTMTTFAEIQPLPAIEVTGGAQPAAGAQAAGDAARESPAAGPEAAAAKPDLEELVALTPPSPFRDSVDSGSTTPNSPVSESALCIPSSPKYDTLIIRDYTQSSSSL
How it was run: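 Doxycycline-induced (600 ng/mL, 18 h) aequorin cells loaded with coelenterazine h ≥4 h at room temperature; compound preincubated 3 min before glutamate at EC80. Luminescence recorded, normalized to digitonin or 20 mM ATP wells; % inhibition of EC80 response fitted by sigmoidal nonlinear regression.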

| SMILES | IC50 [nM] |
| --- | --- |
| Clc1cccc(N2CCc3oc(-c4ccccn4)nc3C2)c1Cl [Compound 170, 5-(2,3-Dichlorophenyl)-2-(pyridin-2-yl)-4,5,6,7-tetrahydrooxazolo[4,5-c]pyridine] | < 1000 |
| Fc1ccc(N2CCc3oc(-c4ccccn4)nc3C2)c(Cl)c1 [Compound 171, 5-(2-Chloro-4-fluorophenyl)-2-(pyridin-2-yl)-4,5,6,7-tetrahydrooxazolo[4,5-c]pyridine] | < 1000 |
| Cc1nc(-c2nc3c(o2)CCN(c2ccccc2Cl)C3)cs1 [Compound 172, 5-(2-Chlorophenyl)-2-(2-methylthiazol-4-yl)-4,5,6,7-tetrahydrooxazolo[4,5-c]pyridine] | < 1000 |
| Clc1ccc(Cl)c(N2CCc3oc(-c4ccccn4)nc3C2)c1 [Compound 173, 5-(2,5-Dichlorophenyl)-2-(pyridin-2-yl)-4,5,6,7-tetrahydrooxazolo[4,5-c]pyridine] | < 1000 |
| Clc1cccc(Cl)c1N1CCc2oc(-c3ccccn3)nc2C1 [Compound 174, 5-(2,6-Dichlorophenyl)-2-(pyridin-2-yl)-4,5,6,7-tetrahydrooxazolo[4,5-c]pyridine] | < 1000 |
| Fc1ccc(Cl)c(N2CCc3oc(-c4ccccn4)nc3C2)c1 [Compound 175, 5-(2-Chloro-5-fluorophenyl)-2-(pyridin-2-yl)-4,5,6,7-tetrahydrooxazolo[4,5-c]pyridine] | < 1000 |
| N#Cc1ccc(F)cc1N1CCc2oc(-c3ccccn3)nc2C1 [Compound 176, 4-Fluoro-2-(2-(pyridin-2-yl)-6,7-dihydrooxazolo[4,5-c]pyridin-5(4H)-yl)benzonitrile] | < 1000 |
| COc1ccccc1N1CCc2oc(-c3ccccn3)nc2C1 [Compound 177, 5-(2-Methoxyphenyl)-2-(pyridin-2-yl)-4,5,6,7-tetrahydrooxazolo[4,5-c]pyridine] | < 1000 |
| Oc1ccccc1N1CCc2oc(-c3ccccn3)nc2C1 [Compound 178, 2-(2-(Pyridin-2-yl)-6,7-dihydrooxazolo[4,5-c]pyridin-5(4H)-yl)phenol] | < 1000 |
| COc1ccc(F)cc1N1CCc2oc(-c3ccccn3)nc2C1 [Compound 179, 5-(5-Fluoro-2-methoxyphenyl)-2-(pyridin-2-yl)-4,5,6,7-tetrahydrooxazolo[4,5-c]pyridine] | < 1000 |
| N#Cc1ccccc1N1CCc2oc(-c3ccccn3)nc2C1 [Compound 180, 2-(2-(Pyridin-2-yl)-6,7-dihydrooxazolo[4,5-c]pyridin-5(4H)-yl)benzonitrile] | < 1000 |
| c1ccc(-c2nc3c(o2)CCN(c2cccc4ccccc24)C3)nc1 [Compound 181, 5-(Naphthalen-1-yl)-2-(pyridin-2-yl)-4,5,6,7-tetrahydrooxazolo[4,5-c]pyridine] | < 1000 |
| FC(F)(F)c1ccccc1N1CCc2oc(-c3ccccn3)nc2C1 [Compound 182, 2-(Pyridin-2-yl)-5-(2-(trifluoromethyl)phenyl)-4,5,6,7-tetrahydrooxazolo[4,5-c]pyridine] | < 1000 |
| Clc1cnccc1N1CCc2oc(-c3ccccn3)nc2C1 [Compound 184, 5-(3-Chloropyridin-4-yl)-2-(pyridin-2-yl)-4,5,6,7-tetrahydrooxazolo[4,5-c]pyridine] | < 10000 |
| N#Cc1ccc(F)c(N2CCc3oc(-c4ccccn4)nc3C2)c1 [Compound 185, 4-Fluoro-3-(2-(pyridin-2-yl)-6,7-dihydrooxazolo[4,5-c]pyridin-5(4H)-yl)benzonitrile] | < 1000 |
| N#Cc1cc(Cl)cc(N2CCc3oc(-c4ccccn4)nc3C2)c1 [Compound 186, 3-Chloro-5-(2-(pyridin-2-yl)-6,7-dihydrooxazolo[4,5-c]pyridin-5(4H)-yl)benzonitrile] | < 1000 |
| Clc1cccnc1N1CCc2oc(-c3ccccn3)nc2C1 [Compound 187, 5-(3-Chloropyridin-2-yl)-2-(pyridin-2-yl)-4,5,6,7-tetrahydrooxazolo[4,5-c]pyridine] | < 1000 |
| Fc1cc(F)c(F)c(N2CCc3oc(-c4ccccn4)nc3C2)c1 [Compound 188, 2-(Pyridin-2-yl)-5-(2,3,5-trifluorophenyl)-4,5,6,7-tetrahydrooxazolo[4,5-c]pyridine] | < 1000 |
| N#Cc1c(F)cccc1N1CCc2oc(-c3ccccn3)nc2C1 [Compound 189, 2-Fluoro-6-(2-(pyridin-2-yl)-6,7-dihydrooxazolo[4,5-c]pyridin-5(4H)-yl)benzonitrile] | < 1000 |
| O=C(CN1CCc2oc(-c3cccc(Cl)c3)nc2C1)c1ccc(F)cc1 [Compound 190, 2-(2-(3-Chlorophenyl)-6,7-dihydrooxazolo[4,5-c]pyridin-5(4H)-yl)-1-(4-fluorophenyl)ethanone] | < 10000 |
| O=C(CN1CCc2oc(-c3cccc(F)c3)nc2C1)c1ccc(F)cc1 [Compound 191, 1-(4-Fluorophenyl)-2-(2-(3-fluorophenyl)-6,7-dihydrooxazolo[4,5-c]pyridin-5(4H)-yl)ethanone] | > 10000 |

| SMILES | IC50 [nM] |
| --- | --- |
| O=C(CN1CCc2oc(-c3ccccn3)nc2C1)c1ccc(F)cc1 [Compound 192, 1-(4-Fluorophenyl)-2-(2-(pyridin-2-yl)-6,7-dihydrooxazolo[4,5-c]pyridin-5(4H)-yl)ethanone] | > 10000 |
| c1ccc(-c2nc3c(o2)CCN(c2ccccc2N2CCOCC2)C3)nc1 [Compound 193, 5-(2-Morpholinophenyl)-2-(pyridin-2-yl)-4,5,6,7-tetrahydrooxazolo[4,5-c]pyridine] | < 1000 |
| c1ccc(-c2nc3c(o2)CCN(c2cccc4[nH]ccc24)C3)nc1 [Compound 194, 5-(1H-Indol-4-yl)-2-(pyridin-2-yl)-4,5,6,7-tetrahydrooxazolo[4,5-c]pyridine] | < 1000 |
| CC(C)(c1ccccn1)c1nc2c(o1)CCN(c1cc(F)cc(C#N)c1)C2 [Compound 195, 3-Fluoro-5-(2-(2-(pyridin-2-yl)propan-2-yl)-6,7-dihydrooxazolo[4,5-c]pyridin-5(4H)-yl)benzonitrile] | > 10000 |
| CC1(C)CN(c2ccc(F)cc2Cl)Cc2nc(-c3ccccn3)oc21 [Compound 196, 5-(2-Chloro-4-fluorophenyl)-7,7-dimethyl-2-(pyridin-2-yl)-4,5,6,7-tetrahydrooxazolo[4,5-c]pyridine] | > 10000 |
| Fc1ccc(N2CCCc3oc(-c4ccccn4)nc3C2)cc1F [Compound 197, 5-(3,4-Difluorophenyl)-2-(pyridin-2-yl)-5,6,7,8-tetrahydro-4H-oxazolo[4,5-c]azepine] | < 1000 |
| Clc1cncc(N2CCCc3oc(-c4ccccn4)nc3C2)c1 [Compound 198, 5-(5-Chloropyridin-3-yl)-2-(pyridin-2-yl)-5,6,7,8-tetrahydro-4H-oxazolo[4,5-c]azepine] | < 1000 |
| Fc1cc(Cl)cc(N2CCCc3oc(-c4ccccn4)nc3C2)c1 [Compound 199, 5-(3-Chloro-5-fluorophenyl)-2-(pyridin-2-yl)-5,6,7,8-tetrahydro-4H-oxazolo[4,5-c]azepine] | < 1000 |
| Fc1ccc(N2CCCc3oc(-c4ncccn4)nc3C2)cc1F [Compound 200, 5-(3,4-Difluorophenyl)-2-(pyrimidin-2-yl)-5,6,7,8-tetrahydro-4H-oxazolo[4,5-c]azepine] | > 10000 |
| Clc1cncc(N2CCCc3oc(-c4ncccn4)nc3C2)c1 [Compound 201, 5-(5-Chloropyridin-3-yl)-2-(pyrimidin-2-yl)-5,6,7,8-tetrahydro-4H-oxazolo[4,5-c]azepine] | < 10000 |
| Fc1cc(Cl)cc(N2CCCc3oc(-c4ncccn4)nc3C2)c1 [Compound 202, 5-(3-Chloro-5-fluorophenyl)-2-(pyrimidin-2-yl)-5,6,7,8-tetrahydro-4H-oxazolo[4,5-c]azepine] | < 1000 |
| N#Cc1cc(F)cc(N2CCCc3oc(-c4ncccn4)nc3C2)c1 [Compound 203, 3-Fluoro-5-(2-(pyrimidin-2-yl)-7,8-dihydro-4H-oxazolo[4,5-c]azepin-5(6H)-yl)benzonitrile] | < 1000 |
| Fc1ccc(N2CCCc3oc(-c4ncccn4)nc3C2)cc1Cl [Compound 204, 5-(3-Chloro-4-fluorophenyl)-2-(pyrimidin-2-yl)-5,6,7,8-tetrahydro-4H-oxazolo[4,5-c]azepine] | > 10000 |
| Fc1ccc(-c2nc3c(o2)CCCN(c2cc(F)cc(Cl)c2)C3)nc1 [Compound 205, 5-(3-Chloro-5-fluorophenyl)-2-(5-fluoropyridin-2-yl)-5,6,7,8-tetrahydro-4H-oxazolo[4,5-c]azepine] | < 1000 |
| N#Cc1cc(F)cc(N2CCCc3oc(-c4cncnc4)nc3C2)c1 [Compound 206, 3-Fluoro-5-(2-(pyrimidin-5-yl)-7,8-dihydro-4H-oxazolo[4,5-c]azepin-5(6H)-yl)benzonitrile] | > 10000 |
| Cc1nc(-c2nc3c(o2)CCCN(c2ccccn2)C3)cs1 [Compound 207, 2-(2-Methylthiazol-4-yl)-5-(pyridin-2-yl)-5,6,7,8-tetrahydro-4H-oxazolo[4,5-c]azepine] | < 10000 |
| Cc1nc(N2CCCc3oc(-c4ccccn4)nc3C2)cs1 [Compound 208, 5-(2-Methylthiazol-4-yl)-2-(pyridin-2-yl)-5,6,7,8-tetrahydro-4H-oxazolo[4,5-c]azepine] | > 10000 |
| Clc1cc(Cl)cc(N2CCCc3oc(-c4ccccn4)nc3C2)c1 [Compound 209, 5-(3,5-Dichlorophenyl)-2-(pyridin-2-yl)-5,6,7,8-tetrahydro-4H-oxazolo[4,5-c]azepine] | < 1000 |
| [2H]c1c(F)c([2H])c(N2CCCc3oc(-c4ccccn4)nc3C2)c([2H])c1C#N [Compound 210, 2,4,6-d3-3-Fluoro-5-(2-(pyridin-2-yl)-7,8-dihydro-4H-oxazolo[4,5-c]azepin-5(6H)-yl)benzonitrile] | < 1000 |
| Clc1ccccc1N1CCCc2oc(-c3ccccn3)nc2C1 [Compound 211, 5-(2-Chlorophenyl)-2-(pyridin-2-yl)-5,6,7,8-tetrahydro-4H-oxazolo[4,5-c]azepine] | < 1000 |
| Clc1ccc(N2CCCc3oc(-c4ccccn4)nc3C2)cc1 [Compound 212, 5-(4-Chlorophenyl)-2-(pyridin-2-yl)-5,6,7,8-tetrahydro-4H-oxazolo[4,5-c]azepine] | < 1000 |
